Columns and labels:
Rhodopsin = experiment: BRD-4780 treatment in Rho-P23H/+ mice, rhodopsin staining of retinal sections; type: in vivo, mouse; conditions: 50 mg/Kg/day oral gavage, 28 days
Method: Rhodopsin intensity was calculated in retinal sections of Rho/+ mice treated with either vehicle or BRD-4780 (FIGS. 21A and 21B), as compared to wild-type mice treated with vehicle alone. In healthy retina, Rhodopsin primarily localized to the outer segment of the photoreceptors (OS, indicated by the arrow in FIG. 21A), instead of localizing around the photoreceptor nuclei in the outer nuclear layer (ONL, indicated by an asterisk in FIG. 21A). Since there is no Rhodopsin-P23H specific antibody, the amount of Rhodopsin staining in the outer nuclear layer was calculated as a measurement of Rhodopsin accumulation in intracellular compartments. The calculated Rhodopsin staining in the ONL was normalized to the nuclear staining, to correct for differences in cell number.
The effect of BRD-4780 on Rhodopsin accumulation in intracellular compartments of mouse retinae were tested in age-matched Rho-P23H/+ and +/+ male mice. […] Animal weight was observed daily to monitor toxicity. On day 28, mice were sacrificed, and eyes were removed for further analysis.

[1] = In vitro toxicity (cell number / viability); type: cell-based; conditions: any concentration tested
Description: Image acquisition and analysis was done as described elsewhere herein. Following image analysis, three parameters were selected, i) MUC1-fs and ii) MUC1-wt total cytoplasm intensity (averaged per cell) and iii) cell number as was detected by Hoechst 33342 stained nuclei. The levels of MUC1-fs and MUC1-wt found following DMSO and JQ1 were defined as 0 and −100% activity, respectively. […] Cell number was normalized to DMSO control. All compound concentrations showing >−20% reduction in cell number were masked out. Based on ±3 median absolute deviation value (FIG. 10A), hit calling criteria for the primary and secondary screens were chosen as MUC1-fs reduction >30% in two or more consecutive concentrations for both replicates. For the secondary screen, dose response curves were generated for each parameter using Genedata Screener (Genedata AG), and positive hits for the profiling screens were selected based on the compounds activity for reducing MUC1-fs and lack of toxicity. MUC1-fs specificity (according to MUC1 fs/wt ratio) was used as an additional positive criterion for selection.

rhodopsin P23H = experiment: GFP fluorescence in N cells expressing rhodopsin P23H-GFP; type: cell-based, human; conditions: 5 μM, 24 hours
Method: N cells plated in 96-well plates were transfected with 20 ng/well of P23H mutant rhodopsin-GFP plasmid DNA using Lipofectamine 3000 (Thermo Fisher Scientific®). Eight hr post-transfection, the cells were washed and processed as described below.
For the GFP-rhodopsin experiments (FIGS. 15D and 15E), cells were identified by digital phase contrast. GFP signal was calculated only in cells expressing GFP signal above a minimal background (to identify successfully transfected cells) and the mean intensity was averaged for each well.
Detection of MUC1-fs in P cells at baseline and following secretory pathway perturbations was performed using immunoblot and IF analyses. For immunoblot experiments (FIGS. 5E and 13D), P cells were grown in 6-well plates to high confluence. For IF experiments (FIGS. 5B-5D and 13A-13C), P cells were plated in 384-well plates at 12,000 cells/well. Following 24 hr, cells were treated with 5 μM BRD-4780 or DMSO alone, or in combination with 100 nM Bafilomycin A (B1793, Sigma-Aldrich), or 200 ng/mL Brefeldin A (B7651, Sigma-Aldrich) for a maximum period of 24 hr as indicated. For TMED9 or Nischarin depletion experiments, transduced/transfected P cells were plated either in 96-well plates at 60,000 cells/well for IF (FIGS. 6C, 6D and 14B), or grown in 6-well plates to high confluence for immunoblot detection (FIGS. 6B and 14C). […]

ER stress and the UPR = experiment: RNA-Seq pathway analysis of fs/+ mouse kidney lysates; type: in vivo; conditions: fs/+ mice, 50 mg/kg/day, 7 days
Method: RNA was extracted from a sagittal section of a half-kidney. Kidney tissue was homogenized using tissue homogenizer (Tissue-Tearor™, BioSpec Products) in 1 mL of TRIzol™ Reagent (15596026, Thermo Fisher Scientific®). Following 5 min incubation, 0.2 mL chloroform (C2432-500ML, Sigma-Aldrich) was added, and samples were vigorously mixed for 30 sec, then centrifuged at 12,000×g at 4° C. for 15 min. The upper aqueous phase containing RNA was then vigorously mixed with 0.5 mL of isopropanol for 30 sec. After 10 min incubation at RT, the samples were centrifuged at 12,000×g at 4° C. for 10 min. The pellet was resuspended in 1 mL of 75% ethanol and centrifuged at 12,000×g 4° C. for 5 min. The RNA pellet was then air dried for 15 min, dissolved in 50 μL of Nuclease-Free Water (AM9937, Thermo Fisher Scientific®), treated with DNase I, Amplification Grade (18068015, Thermo Fisher Scientific®) following the manufacturer's protocol and assessed for yield and purity by NanoDrop™ 2000 (Thermo Fisher Scientific®).
Data processing and statistical analyses for all RNA-seq experiments were performed in RStudio—Version 1.0.153 as follows. First, bam files obtained from the Broad Institute sequencing platform were reverted to FASTQ files followed by alignment of paired end reads to the mm10 mouse or hg19 human reference genome using STAR. […]

CC(C)[C@@H]1[C@H]2CC[C@H](C2)[C@H]1N (racemic) [BRD-4780, 2-endo-amino-3-exo-isopropylbicyclo[2.2.1]heptane]
rhodopsin accumulation in intracellular compartments of retina (Rhodopsin): significantly reduced rhodopsin accumulation in intracellular compartments | in vitro toxicity [1]: no overt toxicity at any concentration tested | GFP fluorescence of GFP-rhodopsin P23H (rhodopsin P23H): significantly decreased GFP fluorescence at 24 hours | pathways changed in kidney bulk RNA-Seq (ER stress and the UPR): downregulated pathways associated with ER stress and the UPR

From patent US12023308B2, “Agents for reversing toxic proteinopathies” (THE BROAD INSTITUTE, INC., priority 2019, dated 2024)
